The source made the active and inactive calls. The rule behind the calls is not given here.
Key:
Keratinocyte [1] = assay: Inhibition of PDZK1IP1 mRNA expression in human keratinocytes at 1 uM incubated for 24 hrs by RT-qPCR analysis; assay type: functional, cell-based
RNA [2] = assay: Binding affinity to complementary RNA (unknown origin) in sodium phosphate buffer assessed as melting temperature of PNA-RNA duplex; assay type: nucleic-acid assay
Keratinocyte [3] = assay: Inhibition of PDZK1IP1 mRNA expression in human keratinocytes at 0.01 to 1 uM incubated for 24 hrs by RT-qPCR analysis; assay type: functional, cell-based; settings: dose 0.01-1 µM
RNA [4] = assay: Binding affinity to complementary RNA (unknown origin) with mismatch bases in sodium phosphate buffer; assay type: nucleic-acid assay
Keratinocyte [5] = assay: Antiinflammatory activity in human keratinocytes assessed as downregulation of PTGS2 gene expression preincubated with compound for 24 hrs followed by IFN-gamma addition and measured after 24 hrs by RT-qPCR analysis; assay type: functional, cell-based; settings: dose 0.01-1 µM, time 48.0 hrs
Keratinocyte [6] = assay: Antiinflammatory activity in human keratinocytes assessed as downregulation of PDZK1IP1 gene expression preincubated with compound for 24 hrs followed by IFN-gamma addition and measured after 24 hrs by RT-qPCR analysis; assay type: functional, cell-based; settings: dose 0.01-1 µM, time 48.0 hrs
Keratinocyte [7] = assay: Inhibition of PDZK1IP1 mRNA expression in human keratinocytes incubated for 24 hrs by RT-qPCR analysis; assay type: functional, cell-based
Keratinocyte [8] = assay: Antiinflammatory activity in human keratinocytes assessed as downregulation of IL6 gene expression preincubated with compound for 24 hrs followed by IFN-gamma addition and measured after 24 hrs by RT-qPCR analysis; assay type: functional, cell-based; settings: dose 0.01-1 µM, time 48.0 hrs
Keratinocyte [9] = assay: Antiinflammatory activity in human keratinocytes assessed as downregulation of IL6 gene expression at 1 uM preincubated with compound for 24 hrs followed by IFN-gamma addition and measured after 24 hrs by RT-qPCR analysis; assay type: functional, cell-based; settings: time 48.0 hrs
Keratinocyte [10] = assay: Antiinflammatory activity in human keratinocytes assessed as downregulation of PDZK1IP1 gene expression at 1 uM preincubated with compound for 24 hrs followed by IFN-gamma addition and measured after 24 hrs by RT-qPCR analysis; assay type: functional, cell-based; settings: time 48.0 hrs
Keratinocyte [11] = assay: Antiinflammatory activity in human keratinocytes assessed as downregulation of PTGS2 gene expression at 1 uM preincubated with compound for 24 hrs followed by IFN-gamma addition and measured after 24 hrs by RT-qPCR analysis; assay type: functional, cell-based; settings: time 48.0 hrs

SMILES	Tm (RNA [2]) [°C]	Activity (RNA [4])	inhibition (Keratinocyte [1])	inhibition (Keratinocyte [3])	Activity (Keratinocyte [5])	Activity (Keratinocyte [6])	inhibition (Keratinocyte [7])	Activity (Keratinocyte [8])	Activity (Keratinocyte [9])	Activity (Keratinocyte [10])	Activity (Keratinocyte [11])
Cc1cn(CC(=O)N(CCNC(=O)CN(CCNC(=O)CN(CCNC(=O)CN(CCNC(=O)CN(CCNC(=O)CN(CCNC(=O)CN(CCN)C(=O)Cn2cnc3c(=O)[nH]c(N)nc32)C(=O)Cn2cnc3c(=O)[nH]c(NCCCCCCN)nc32)C(=O)Cn2ccc(N)nc2=O)C(=O)Cn2cc(C)c(=O)[nH]c2=O)C(=O)Cn2cc3cc(COCCN)[nH]c3nc2=O)C(=O)Cn2ccc(N)nc2=O)CC(=O)NCCN(CC(=O)NCCN(CC(=O)NCCN(CC(=O)NCCN(CC(=O)NCCN(CC(=O)NCCN(CC(=O)NCCN(CC(=O)O)C(=O)Cn2cnc3c(N)nc(NCCCCCN)nc32)C(=O)Cn2ccc(N)nc2=O)C(=O)Cn2cnc3c(=O)[nH]c(N)nc32)C(=O)Cn2cnc3c(=O)[nH]c(NCCCCCCN)nc32)C(=O)Cn2cc(C)c(=O)[nH]c2=O)C(=O)Cn2cc3cc(COCCN)[nH]c3nc2=O)C(=O)Cn2ccc(N)nc2=O)c(=O)[nH]c1=O	84	inactive	Active	Mild_effect; Mild Dose Dependent Effect Observed	–	–	–	–	–	–	–
Cc1cn(CC(=O)N(CCNC(=O)CN(CCNC(=O)CN(CCNC(=O)CN(CCNC(=O)CN(CCNC(=O)CN(CCNC(=O)CN(CCNC(=O)CN(CCNC(=O)CN(CCNC(=O)CN(CCNC(=O)CN(CCNC(=O)CN(CCNC(=O)CN(CCN)C(=O)Cn2cnc3c(N)nc(NCCCCCN)nc32)C(=O)Cn2ccc(N)nc2=O)C(=O)Cn2cc(C)c(=O)[nH]c2=O)C(=O)Cn2ccc(N)nc2=O)C(=O)Cn2cnc3c(N)nc(NCCCCCN)nc32)C(=O)Cn2ccc(N)nc2=O)C(=O)Cn2cnc3c(=O)[nH]c(NCCCCCCN)nc32)C(=O)Cn2cnc3c(=O)[nH]c(N)nc32)C(=O)Cn2cc3cc(COCCN)[nH]c3nc2=O)C(=O)Cn2cc(C)c(=O)[nH]c2=O)C(=O)Cn2ccc(N)nc2=O)C(=O)Cn2cc3cc(COCCN)[nH]c3nc2=O)CC(=O)NCCN(CC(=O)O)C(=O)Cn2ccc(N)nc2=O)c(=O)[nH]c1=O	74.1	inactive	Active	Mild_effect; Mild Dose Dependent Effect Observed	–	–	–	–	–	–	–
Cc1cn(CC(=O)N(CCNC(=O)CN(CCNC(=O)CN(CCNC(=O)CN(CCNC(=O)CN(CCNC(=O)CN(CCNC(=O)CN(CCNC(=O)CN(CCNC(=O)CN(CCNC(=O)CN(CCNC(=O)CN(CCNC(=O)CN(CCNC(=O)CN(CCNC(=O)CN(CCN)C(=O)Cn2cc(C)c(=O)[nH]c2=O)C(=O)Cn2cnc3c(=O)[nH]c(NCCCCCCN)nc32)C(=O)Cn2cc(C)c(=O)[nH]c2=O)C(=O)Cn2cnc3c(=O)[nH]c(NCCCCCCN)nc32)C(=O)Cn2ccc(N)nc2=O)C(=O)Cn2cnc3c(N)nc(NCCCCCN)nc32)C(=O)Cn2cnc3c(=O)[nH]c(N)nc32)C(=O)Cn2cnc3c(=O)[nH]c(NCCCCCCN)nc32)C(=O)Cn2ccc(N)nc2=O)C(=O)Cn2cc(C)c(=O)[nH]c2=O)C(=O)Cn2ccc(N)nc2=O)C(=O)Cn2cc3cc(COCCN)[nH]c3nc2=O)C(=O)Cn2ccc(N)nc2=O)CC(=O)O)c(=O)[nH]c1=O	75	inactive	Active	Mild_effect; Mild Dose Dependent Effect Observed	–	–	–	–	–	–	–
Cc1cn(CC(=O)N(CCN)CC(=O)NCCN(CC(=O)NCCN(CC(=O)NCCN(CC(=O)NCCN(CC(=O)NCCN(CC(=O)NCCN(CC(=O)NCCN(CC(=O)NCCN(CC(=O)NCCN(CC(=O)NCCN(CC(=O)NCCN(CC(=O)NCCN(CC(=O)NCCN(CC(=O)NCCN(CC(=O)NCCN(CC(=O)NCCN(CC(=O)NCCN(CC(=O)NCCN(CC(=O)NCCN(CC(N)=O)C(=O)Cn2cnc3c(=O)[nH]c(N)nc32)C(=O)Cn2ccc(N)nc2=O)C(=O)Cn2cnc3c(N)nc(NCCCCCN)nc32)C(=O)Cn2cc(C)c(=O)[nH]c2=O)C(=O)Cn2ccc(N)nc2=O)C(=O)Cn2cnc3c(N)ncnc32)C(=O)Cn2cnc3c(=O)[nH]c(N)nc32)C(=O)Cn2cnc3c(N)ncnc32)C(=O)Cn2ccc(N)nc2=O)C(=O)Cn2cnc3c(N)nc(N)nc32)C(=O)Cn2cnc3c(N)nc(NCCCCCN)nc32)C(=O)Cn2ccc(N)nc2=O)C(=O)Cn2cc(C)c(=O)[nH]c2=O)C(=O)Cn2cc(C)c(=O)[nH]c2=O)C(=O)Cn2ccc(N)nc2=O)C(=O)Cn2cnc3c(N)nc(NCCCCCN)nc32)C(=O)Cn2ccc(N)nc2=O)C(=O)Cn2cc(C)c(=O)[nH]c2=O)C(=O)Cn2cc3cc(COCCN)[nH]c3nc2=O)c(=O)[nH]c1=O	–	–	inactive	–	–	–	–	–	inactive	inactive	inactive

Second part, led by results:

Tm (RNA [2]) [°C]	Activity (RNA [4])	SMILES	inhibition (Keratinocyte [1])	inhibition (Keratinocyte [3])	Activity (Keratinocyte [5])	Activity (Keratinocyte [6])	inhibition (Keratinocyte [7])	Activity (Keratinocyte [8])	Activity (Keratinocyte [9])	Activity (Keratinocyte [10])	Activity (Keratinocyte [11])
80	inactive	Cc1cn(CC(=O)N(CCN)CC(=O)NCCN(CC(=O)NCCN(CC(=O)NCCN(CC(=O)NCCN(CC(=O)NCCN(CC(=O)NCCN(CC(=O)NCCN(CC(=O)NCCN(CC(=O)NCCN(CC(=O)NCCN(CC(=O)NCCN(CC(=O)NCCN(CC(=O)NCCN(CC(=O)O)C(=O)Cn2cnc3c(=O)[nH]c(N)nc32)C(=O)Cn2cnc3c(=O)[nH]c(NCCCCCCN)nc32)C(=O)Cn2cc(C)c(=O)[nH]c2=O)C(=O)Cn2ccc(N)nc2=O)C(=O)Cn2ccc(N)nc2=O)C(=O)Cn2cc3cc(COCCN)[nH]c3nc2=O)C(=O)Cn2cc(C)c(=O)[nH]c2=O)C(=O)Cn2ccc(N)nc2=O)C(=O)Cn2cnc3c(=O)[nH]c(NCCCCCCN)nc32)C(=O)Cn2cnc3c(=O)[nH]c(N)nc32)C(=O)Cn2cnc3c(N)nc(NCCCCCN)nc32)C(=O)Cn2ccc(N)nc2=O)C(=O)Cn2cnc3c(=O)[nH]c(NCCCCCCN)nc32)c(=O)[nH]c1=O	Active	–	Dose-dependent-effect	Dose-dependent-effect	Dose-dependent-effect	Dose-dependent-effect	–	–	–
> 90	inactive	Cc1cn(CC(=O)N(CCN)CC(=O)NCCN(CC(=O)NCCN(CC(=O)NCCN(CC(=O)NCCN(CC(=O)NCCN(CC(=O)NCCN(CC(=O)NCCN(CC(=O)NCCN(CC(=O)NCCN(CC(=O)NCCN(CC(=O)NCCN(CC(=O)NCCN(CC(=O)NCCN(CC(=O)NCCN(CC(=O)NCCN(CC(=O)NCCN(CC(=O)NCCN(CC(=O)NCCN(CC(=O)NCCN(CC(=O)O)C(=O)Cn2cnc3c(=O)[nH]c(NCCCCCCN)nc32)C(=O)Cn2ccc3c(=O)[nH]c(N)nc32)C(=O)Cn2cnc3c(=O)[nH]c(N)nc32)C(=O)Cn2cnc3c(=O)[nH]c(NCCCCCCN)nc32)C(=O)Cn2cc(C)c(=O)[nH]c2=O)C(=O)Cn2ccc(N)nc2=O)C(=O)Cn2ccc(N)nc2=O)C(=O)Cn2ccc(N)nc2=O)C(=O)Cn2cc(C)c(=O)[nH]c2=O)C(=O)Cn2cc3cc(COCCN)[nH]c3nc2=O)C(=O)Cn2cnc3c(=O)[nH]c(N)nc32)C(=O)Cn2cnc3c(=O)[nH]c(N)nc32)C(=O)Cn2cnc3c(N)nc(NCCCCCN)nc32)C(=O)Cn2ccc(N)nc2=O)C(=O)Cn2cnc3c(=O)[nH]c(N)nc32)C(=O)Cn2cc(C)c(=O)[nH]c2=O)C(=O)Cn2cnc3c(=O)[nH]c(N)nc32)C(=O)Cn2cc(C)c(=O)[nH]c2=O)C(=O)Cn2cnc3c(=O)[nH]c(N)nc32)c(=O)[nH]c1=O	–	–	–	–	Dose-dependent-effect	–	–	–	–
